According to BindingDB's records for doi:10.1016/0960-894X(95)00199-4 (1995):

What was measured:
[1] = Compound was evaluated for the inhibition of platelet aggregation, assessed turbidimetrically in citreated human platelet rich plasma (PRP)
Thromboxane A2 receptor = target: T1, Thromboxane A2 receptor (Homo sapiens, UniProt P21731); experiment: Compound was evaluated for the inhibition of platelet aggregation, assessed turbidimetrically in citreated human platelet rich plasma (PRP)
T1 sequence (P21731 whole entry): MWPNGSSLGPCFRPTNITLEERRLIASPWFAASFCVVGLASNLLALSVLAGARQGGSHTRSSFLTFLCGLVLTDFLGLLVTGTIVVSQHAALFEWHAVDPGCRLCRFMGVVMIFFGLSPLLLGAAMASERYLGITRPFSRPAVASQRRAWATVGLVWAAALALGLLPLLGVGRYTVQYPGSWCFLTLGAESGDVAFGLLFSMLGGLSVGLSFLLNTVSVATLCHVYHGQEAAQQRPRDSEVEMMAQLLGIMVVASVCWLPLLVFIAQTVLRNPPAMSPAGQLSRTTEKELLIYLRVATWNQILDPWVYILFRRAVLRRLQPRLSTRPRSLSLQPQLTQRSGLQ

Row | IC50 [1] [µM] | IC50 (Thromboxane A2 receptor) [µM] | Compound
1 | 20 | – | O=C(O)CC/C=C\CC1=CCC[C@@H]1NS(=O)(=O)c1ccc(F)cc1F
2 | 1.6 | – | O=C(O)CC/C=C/C[C@H]1[C@H](F)CC[C@@H]1NS(=O)(=O)c1ccc(F)cc1F
3 | 0.63 | – | O=C(O)CCC/C=C\C[C@H]1[C@H](F)CC[C@@H]1NS(=O)(=O)c1ccc(Cl)c(Cl)c1
4 | 5.5 | – | O=C(O)COCCCC[C@H]1[C@H](F)CC[C@@H]1NS(=O)(=O)c1ccccc1[N+](=O)[O-]
5 | 2.3 | – | O=C(O)CCC/C=C\CC1=CCC[C@@H]1NS(=O)(=O)c1ccccc1
6 | 1.9 | – | O=C(O)CC/C=C\CC1=CCC[C@@H]1NS(=O)(=O)c1ccc(Cl)c(Cl)c1
7 | 1.1 | – | O=C(O)CCC/C=C\C[C@H]1[C@H](F)CC[C@@H]1NS(=O)(=O)c1ccccc1
8 | – | 2 | O=C(O)CCC/C=C\C[C@H]1[C@H](F)CC[C@@H]1NS(=O)(=O)C1=C2N=CC=CC2CC=C1 (stereo partly drawn)
9 | 1.9 | – | O=C(O)CC/C=C\CC1=CCC[C@@H]1NS(=O)(=O)c1ccc(Cl)cc1
10 | 1.9 | – | O=C(O)CCC/C=C\CC1=CCC[C@@H]1NS(=O)(=O)c1ccc2ccccc2c1
11 | 0.25 | – | Cc1ccc(S(=O)(=O)N[C@H]2CCC=C2C/C=C\CCCC(=O)O)cc1
12 | 0.75 | – | O=C(O)CC/C=C\C[C@H]1[C@H](F)CC[C@@H]1NS(=O)(=O)c1ccc(F)cc1
13 | 1.7 | – | O=C(O)COCCCC[C@H]1[C@H](F)CC[C@@H]1NS(=O)(=O)c1ccccc1
14 | 1.8 | – | Cc1ccc(S(=O)(=O)N[C@H]2CC[C@@H](F)[C@@H]2CCCCOCC(=O)O)cc1
15 | 1.9 | – | Cc1ccc(S(=O)(=O)NC[C@H]2CC[C@@H](F)[C@@H]2C/C=C\CCC(=O)O)cc1
16 | 1.9 | – | Cc1ccc(S(=O)(=O)N[C@H]2CCC=C2CCCCOCC(=O)O)cc1
17 | 2 | – | O=C(O)CCC/C=C\C[C@@H]1[C@@H](CNS(=O)(=O)c2ccc(F)cc2)CC[C@H]1F
18 | 1.8 | – | O=C(O)COCCCC[C@H]1[C@H](F)CC[C@@H]1NS(=O)(=O)c1ccc(F)cc1F
19 | 0.26 | – | Cc1ccc(S(=O)(=O)N[C@H]2CC[C@@H](F)[C@@H]2C/C=C\CCCC(=O)O)cc1
20 | 0.62 | – | O=C(O)CCCCCCC1=CCC[C@@H]1NS(=O)(=O)c1ccc(F)cc1
21 | 0.6 | – | O=C(O)CC/C=C\CC1=CCC[C@@H]1NS(=O)(=O)c1ccccc1[N+](=O)[O-]
22 | 2.2 | – | O=C(O)CC/C=C\CC1=CCC[C@@H]1NS(=O)(=O)c1ccccc1
23 | 4.4 | – | O=C(O)CCC/C=C\CC1=CCC[C@@H]1NS(=O)(=O)c1ccc(F)cc1
24 | 1.7 | – | O=C(O)CC/C=C\C[C@H]1[C@H](F)CC[C@@H]1NS(=O)(=O)c1ccc(Cl)c(Cl)c1
25 | 0.6 | – | O=C(O)CC/C=C\CC1=CCC[C@@H]1CNS(=O)(=O)c1ccc(F)cc1
26 | – | 0.54 | O=C(O)CCC/C=C\C[C@H]1[C@H](F)CC[C@@H]1NS(=O)(=O)c1ccc(F)cc1
27 | 2 | – | O=C(O)CCC/C=C\CC1=CCC[C@@H]1NS(=O)(=O)c1cccc2cccnc12

Row | IC50 [1] [µM] | IC50 (Thromboxane A2 receptor) [µM] | Compound
28 | 0.56 | – | O=C(O)CC/C=C\C[C@H]1[C@H](F)CC[C@@H]1NS(=O)(=O)c1ccccc1[N+](=O)[O-]
29 | 0.65 | – | O=C(O)COCCCC[C@@H]1[C@@H](CNS(=O)(=O)c2ccc(F)cc2)CC[C@H]1F
30 | 1.8 | – | O=C(O)COCCCC[C@H]1[C@H](F)CC[C@@H]1NS(=O)(=O)c1ccc(F)cc1
31 | 1.9 | – | O=C(O)COCCCCC1=CCC[C@@H]1NS(=O)(=O)c1ccc(Cl)c(Cl)c1
32 | 2 | – | O=C(O)CC/C=C\C[C@H]1[C@H](F)CC[C@@H]1NS(=O)(=O)c1ccccc1
33 | 6 | – | O=C(O)CCCCCC[C@@H]1[C@@H](CNS(=O)(=O)c2ccc(F)cc2)CC[C@H]1F
34 | 2.4 | – | O=C(O)CCCCCC[C@H]1[C@H](F)CC[C@@H]1NS(=O)(=O)c1ccc(F)cc1
35 | 1.3 | – | O=C(O)CC/C=C\CC1=CCC[C@@H]1NS(=O)(=O)c1ccc(F)cc1
36 | 0.2 | – | O=C(O)CCC/C=C\C[C@H]1[C@H](F)CC[C@@H]1NS(=O)(=O)c1ccc(F)cc1F
37 | 0.2 | – | O=C(O)COCCCCC1=CCC[C@@H]1CNS(=O)(=O)c1ccc(F)cc1
38 | 1.8 | – | Cc1ccc(S(=O)(=O)N[C@H]2CCC=C2C/C=C\CCC(=O)O)cc1
39 | 1.9 | – | O=C(O)COCCCCC1=CCC[C@@H]1NS(=O)(=O)c1ccccc1[N+](=O)[O-]
40 | 0.65 | – | O=C(O)CC/C=C\C[C@@H]1[C@@H](CNS(=O)(=O)c2ccc(F)cc2)CC[C@@H]1F
41 | 1.9 | – | Cc1ccc(S(=O)(=O)N[C@H]2CC[C@@H](F)[C@@H]2C/C=C\CCC(=O)O)cc1
42 | 0.07 | – | O=C(O)CCC/C=C\C[C@H]1[C@H](F)CC[C@@H]1NS(=O)(=O)c1ccc(Cl)cc1
43 | 1.8 | – | O=C(O)COCCCCC1=CCC[C@@H]1NS(=O)(=O)c1ccc(F)cc1F
44 | 1.7 | – | O=C(O)CCC/C=C\CC1=CCC[C@@H]1CNS(=O)(=O)c1ccc(F)cc1
45 | 2 | – | O=C(O)COCCCCC1=CCC[C@@H]1NS(=O)(=O)c1ccc(F)cc1
46 | 0.2 | – | O=C(O)CCC/C=C\C[C@H]1[C@H](F)CC[C@@H]1NS(=O)(=O)c1ccc2ccccc2c1
47 | 0.21 | – | O=C(O)CC/C=C\C[C@H]1[C@H](F)CC[C@@H]1NS(=O)(=O)c1ccc(Cl)cc1
48 | 0.68 | – | O=C(O)CCC/C=C\CC1=CCC[C@@H]1NS(=O)(=O)c1ccccc1[N+](=O)[O-]
49 | 1.8 | – | O=C(O)CCC/C=C\C[C@H]1[C@H](F)CC[C@@H]1NS(=O)(=O)c1ccccc1[N+](=O)[O-]
50 | – | 1.9 | O=C(O)CC/C=C\C[C@@H]1[C@@H](CNS(=O)(=O)c2ccc(F)cc2)CC[C@H]1F
51 | 2 | – | O=C(O)COCCCCC1=CCC[C@@H]1NS(=O)(=O)c1ccccc1
52 | 4.7 | – | O=C(O)CCCCC[C@@H]1[C@@H](CNS(=O)(=O)c2ccc(F)cc2)CC[C@H]1F
53 | 1.8 | – | O=C(O)CC/C=C\C[C@@H]1[C@@H](CNS(=O)(=O)c2ccc(Cl)cc2)CC[C@H]1F
